Compound: O=C(CCCCCCC(=O)Nc1ccccc1)NO [Vorinostat] + COc1cc2c(Oc3ccc(NC(=O)C4(C(=O)Nc5ccc(F)cc5)CC4)cc3F)ccnc2cc1OCCCN1CCOCC1 [Foretinib] (partner 0.25 µM)
Experiment: relative viability (nuclei count vs DMSO), 5 days (fraction); higher = more cells survive
How it was run: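 Lung cancer cell lines were pin-tool dosed in 1536-well plates on the day after seeding, with either a lone drug or a fixed anchor-drug dose plus five library-drug doses (not always all listed) in √10 steps. Nuclei were counted on 4× images after 5 days. Relative viability is the ratio of treated-well to vehicle-well nuclei counts, with each value a median of duplicate plates.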

In the case of NCI-H661, the relative viability (first compound 0.253 µM) is reported as 1.11, the relative viability (first compound 0.8 µM) is reported as 0.843 and the relative viability (first compound 2.53 µM) is reported as 0.447. It also gave a relative viability (first compound 8 µM) of 0.298.

For NCI-H727, the relative viability (first compound 0.253 µM) was 0.855, the relative viability (first compound 0.8 µM) was 0.821 and the relative viability (first compound 2.53 µM) was 0.378. For the same cell line, the relative viability (first compound 8 µM) was 0.329.

NCI-H838 gave a relative viability (first compound 0.253 µM) of 1.33, a relative viability (first compound 0.8 µM) of 1.05 and a relative viability (first compound 2.53 µM) of 0.51. For the same cell line, the relative viability (first compound 8 µM) was 0.173.

NCI-H1355 showed a relative viability (first compound 0.253 µM) of 1.05, a relative viability (first compound 0.8 µM) of 1.01 and a relative viability (first compound 2.53 µM) of 0.562. For the same cell line, the relative viability (first compound 8 µM) was 0.156.

In the case of NCI-H1395, the relative viability (first compound 0.253 µM) is reported as 1.09, the relative viability (first compound 0.8 µM) is reported as 1.09 and the relative viability (first compound 2.53 µM) is reported as 0.822. It also gave a relative viability (first compound 8 µM) of 0.427.

In the case of NCI-H1437, the relative viability (first compound 0.253 µM) is reported as 1.25, the relative viability (first compound 0.8 µM) is reported as 1.22 and the relative viability (first compound 2.53 µM) is reported as 0.546. For the same cell line, the relative viability (first compound 8 µM) was 0.171.

NCI-H1563 gave a relative viability (first compound 0.253 µM) of 0.999, a relative viability (first compound 0.8 µM) of 0.833 and a relative viability (first compound 2.53 µM) of 0.574. For the same cell line, the relative viability (first compound 8 µM) was 0.52.

In the case of NCI-H1650, the relative viability (first compound 0.253 µM) is reported as 1.1, the relative viability (first compound 0.8 µM) is reported as 1 and the relative viability (first compound 2.53 µM) is reported as 0.648. It also gave a relative viability (first compound 8 µM) of 0.14.

In the case of NCI-H1651, the relative viability (first compound 0.253 µM) is reported as 0.879, the relative viability (first compound 0.8 µM) is reported as 0.791 and the relative viability (first compound 2.53 µM) is reported as 0.228. For the same cell line, the relative viability (first compound 8 µM) was 0.0797.

NCI-H1666 gave a relative viability (first compound 0.253 µM) of 0.982, a relative viability (first compound 0.8 µM) of 0.906 and a relative viability (first compound 2.53 µM) of 0.387. It also gave a relative viability (first compound 8 µM) of 0.349.

For NCI-H1703, the relative viability (first compound 0.253 µM) was 0.418, the relative viability (first compound 0.8 µM) was 0.599 and the relative viability (first compound 2.53 µM) was 0.632. For the same cell line, the relative viability (first compound 8 µM) was 0.277.

NCI-H1734 showed a relative viability (first compound 0.253 µM) of 0.944, a relative viability (first compound 0.8 µM) of 0.917 and a relative viability (first compound 2.53 µM) of 0.526. The relative viability (first compound 8 µM) was 0.176.

NCI-H1755 gave a relative viability (first compound 0.253 µM) of 0.997, a relative viability (first compound 0.8 µM) of 0.971 and a relative viability (first compound 2.53 µM) of 0.525. It also gave a relative viability (first compound 8 µM) of 0.202.

Cell Line NCI-H1793 has a relative viability (first compound 0.253 µM) of 1.03, a relative viability (first compound 0.8 µM) of 0.679 and a relative viability (first compound 2.53 µM) of 0.257. For the same cell line, the relative viability (first compound 8 µM) was 0.204.

With NCI-H1915 the relative viability (first compound 0.253 µM) was 1.14, the relative viability (first compound 0.8 µM) was 1.05 and the relative viability (first compound 2.53 µM) was 0.474. The relative viability (first compound 8 µM) was 0.137.

Work on NCI-H1944 yielded a relative viability (first compound 0.253 µM) of 0.832, a relative viability (first compound 0.8 µM) of 0.594 and a relative viability (first compound 2.53 µM) of 0.321. The relative viability (first compound 8 µM) was 0.142.

In the case of NCI-H1975, the relative viability (first compound 0.253 µM) is reported as 0.962, the relative viability (first compound 0.8 µM) is reported as 0.838 and the relative viability (first compound 2.53 µM) is reported as 0.295. The relative viability (first compound 8 µM) was 0.108.

NCI-H1993 gave a relative viability (first compound 0.253 µM) of 0.84, a relative viability (first compound 0.8 µM) of 0.801 and a relative viability (first compound 2.53 µM) of 0.747. It also gave a relative viability (first compound 8 µM) of 0.494.

NCI-H2009 was tested, and the relative viability (first compound 0.253 µM) was 1.28, the relative viability (first compound 0.8 µM) was 1.22 and the relative viability (first compound 2.53 µM) was 0.716. For the same cell line, the relative viability (first compound 8 µM) was 0.143.

NCI-H2023 gave a relative viability (first compound 0.253 µM) of 1.13, a relative viability (first compound 0.8 µM) of 0.82 and a relative viability (first compound 2.53 µM) of 0.31. For the same cell line, the relative viability (first compound 8 µM) was 0.0629.

For NCI-H2085, the relative viability (first compound 0.253 µM) was 0.968, the relative viability (first compound 0.8 µM) was 0.665 and the relative viability (first compound 2.53 µM) was 0.468. For the same cell line, the relative viability (first compound 8 µM) was 0.228.

NCI-H2087 was tested, and the relative viability (first compound 0.253 µM) was 1.34, the relative viability (first compound 0.8 µM) was 0.615 and the relative viability (first compound 2.53 µM) was 0.153. It also gave a relative viability (first compound 8 µM) of 0.0924.

Work on NCI-H2126 yielded a relative viability (first compound 0.253 µM) of 1.14, a relative viability (first compound 0.8 µM) of 0.968 and a relative viability (first compound 2.53 µM) of 0.365. The relative viability (first compound 8 µM) was 0.235.

With NCI-H2170 the relative viability (first compound 0.253 µM) was 0.982, the relative viability (first compound 0.8 µM) was 1.04 and the relative viability (first compound 2.53 µM) was 0.675. For the same cell line, the relative viability (first compound 8 µM) was 0.526.

NCI-H2228 gave a relative viability (first compound 0.253 µM) of 0.917, a relative viability (first compound 0.8 µM) of 0.537 and a relative viability (first compound 2.53 µM) of 0.311. The relative viability (first compound 8 µM) was 0.0906.

For NCI-H2342, the relative viability (first compound 0.253 µM) was 0.975, the relative viability (first compound 0.8 µM) was 1.07 and the relative viability (first compound 2.53 µM) was 0.587. It also gave a relative viability (first compound 8 µM) of 0.385.

NCI-H2347 was tested, and the relative viability (first compound 0.253 µM) was 1.02, the relative viability (first compound 0.8 µM) was 0.84 and the relative viability (first compound 2.53 µM) was 0.587. It also gave a relative viability (first compound 8 µM) of 0.198.

NCI-H2405 gave a relative viability (first compound 0.253 µM) of 1.16, a relative viability (first compound 0.8 µM) of 1.15 and a relative viability (first compound 2.53 µM) of 0.505. The relative viability (first compound 8 µM) was 0.108.

For NCI-H3122, the relative viability (first compound 0.253 µM) was 1.04, the relative viability (first compound 0.8 µM) was 1.05 and the relative viability (first compound 2.53 µM) was 0.242. For the same cell line, the relative viability (first compound 8 µM) was 0.0563.

PC-3 [JPC-3] was tested, and the relative viability (first compound 0.253 µM) was 1.02, the relative viability (first compound 0.8 µM) was 1.03 and the relative viability (first compound 2.53 µM) was 0.316. The relative viability (first compound 8 µM) was 0.239.

Cell Line PC-14 has a relative viability (first compound 0.253 µM) of 1.15, a relative viability (first compound 0.8 µM) of 1.04 and a relative viability (first compound 2.53 µM) of 0.62. For the same cell line, the relative viability (first compound 8 µM) was 0.0829.

Cell Line RERF-LC-KJ has a relative viability (first compound 0.253 µM) of 1, a relative viability (first compound 0.8 µM) of 0.791 and a relative viability (first compound 2.53 µM) of 0.743. It also gave a relative viability (first compound 8 µM) of 0.248.

With SK-LU-1 the relative viability (first compound 0.253 µM) was 0.881, the relative viability (first compound 0.8 µM) was 0.829 and the relative viability (first compound 2.53 µM) was 0.385. The relative viability (first compound 8 µM) was 0.137.

SK-MES-1 showed a relative viability (first compound 0.253 µM) of 1.14, a relative viability (first compound 0.8 µM) of 1.04 and a relative viability (first compound 2.53 µM) of 0.778. For the same cell line, the relative viability (first compound 8 µM) was 0.249.

For SW 1573, the relative viability (first compound 0.253 µM) was 1.29, the relative viability (first compound 0.8 µM) was 1.07 and the relative viability (first compound 2.53 µM) was 0.75. It also gave a relative viability (first compound 8 µM) of 0.15.

Cell Line UMC-11 has a relative viability (first compound 0.253 µM) of 1.12, a relative viability (first compound 0.8 µM) of 0.465 and a relative viability (first compound 2.53 µM) of 0.121. For the same cell line, the relative viability (first compound 8 µM) was 0.103.

From the supplement of paper PMC10307832
